Where two headings read alike, the source gives them in different places.
Columns and labels:
AR = biological target: T1, AR (Homo sapiens, UniProt P10275); assay: Interaction of non-radioactive iodine compounds with AR; details: compounds containing non-radioactive iodine
T1 sequence (P10275 1-920): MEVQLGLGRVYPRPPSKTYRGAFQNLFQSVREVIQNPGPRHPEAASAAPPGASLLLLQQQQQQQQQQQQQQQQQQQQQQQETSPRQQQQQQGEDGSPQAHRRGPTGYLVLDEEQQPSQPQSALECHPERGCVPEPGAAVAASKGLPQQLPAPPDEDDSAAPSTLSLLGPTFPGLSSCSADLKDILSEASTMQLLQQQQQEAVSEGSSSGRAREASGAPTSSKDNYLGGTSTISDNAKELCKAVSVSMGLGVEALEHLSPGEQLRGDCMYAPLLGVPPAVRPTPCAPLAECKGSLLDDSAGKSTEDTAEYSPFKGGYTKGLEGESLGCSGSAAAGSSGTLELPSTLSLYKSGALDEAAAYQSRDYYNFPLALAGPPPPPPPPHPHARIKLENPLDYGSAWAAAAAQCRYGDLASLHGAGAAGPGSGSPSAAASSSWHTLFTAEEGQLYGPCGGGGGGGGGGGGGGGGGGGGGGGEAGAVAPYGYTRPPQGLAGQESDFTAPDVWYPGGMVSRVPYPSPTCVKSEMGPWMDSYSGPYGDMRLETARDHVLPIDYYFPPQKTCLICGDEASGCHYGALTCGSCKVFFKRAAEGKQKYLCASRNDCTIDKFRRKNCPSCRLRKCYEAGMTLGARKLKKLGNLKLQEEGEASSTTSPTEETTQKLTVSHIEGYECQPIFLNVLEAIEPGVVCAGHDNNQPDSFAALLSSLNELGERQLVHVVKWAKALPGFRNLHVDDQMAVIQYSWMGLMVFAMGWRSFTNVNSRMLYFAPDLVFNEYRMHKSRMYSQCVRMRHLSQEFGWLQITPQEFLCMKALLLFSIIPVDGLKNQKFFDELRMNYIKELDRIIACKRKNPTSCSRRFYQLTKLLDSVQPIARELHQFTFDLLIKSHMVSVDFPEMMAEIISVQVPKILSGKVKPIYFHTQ

[1] = Systemic toxicity, repeated i.p. injection in mice; type: in vivo; details: i.p.
Procedure: Systemic toxicity was orientationally evaluated by i.p. injection every 2nd day in mice. […] For BP-34, the corresponding values were 150 mg/kg bw and 300 mg/kg bw.
The maximum tolerated dose should thus be approximately 300 mg/kg. For BP-34, i.p. injections of 100-300 mg/kg produce no mortalities in mice. […] Therefore, the maximum tolerated dose of BP-34 should be approximately 250 mg/kg.

[2] = four rabbits, topically twice daily (0.6 mg/kg-day), ten days; limit of detection approximately 10 ng/ml
Procedure: (§1) Serum samples were collected at 2, 5 and 21 hours after the first application, and once every other day, thereafter. Serum samples were processed and analyzed by HPLC.

[3] = rabbits, topical twice daily, ten days
Procedure: as §1
The rabbits were also observed daily for signs of cutaneous irritation.

[4] = probit analysis
[5] = male and female Wistar rats, highest dose tested
[6] = Permadi et al. 1993; cited from earlier work

SMILES: CC1(C)C(=O)N(c2ccc(C#N)c(C(F)(F)F)c2)C(=S)N1C/C=C/I [BP-305, 4-[3′-trans-(2″-propenyl-3″-iodo)-4′,4′-dimethyl-5′-oxo-2′-thioxo-1-imidazolidinyl]-2-trifluoromethylbenzonitrile]
- Interaction with AR as compared to controls (AR): shown to interact with AR

SMILES: CC(O)(CNC(=O)C(F)(F)F)C(=O)Nc1ccc([N+](=O)[O-])c(C(F)(F)F)c1 (stereo not shown) [BP-766, 4-nitro-3-trifluoromethyl-N-(2′-hydroxy-2′-methyl-3′-N-(trifluoromethylamido)propionyl) aniline]
- Maximum tolerated dose [1]: approximately 300 mg/kg
- LD50 (daily dose for seven days that resulted in 50% mortality) ([1]; daily for seven days): 450 mg/kg bw
- BP-766 and/or BP-34 in serum after topical application [2]: No. BP-766 or BP-34 were found in any of the samples
- Signs of cutaneous irritation [3]: No signs of irritation
- Effect on effluvium of the frontal hairline (androgenic alopecia; six volunteers (4 male, 2 female), 2% solution, 1 ml twice daily, after 2 weeks): arrested the effluvium of the frontal hairline in all six volunteers
- Dermal irritation (androgenic alopecia; six volunteers, 2% solution in anhydrous isopropanol, 1 ml twice daily (0.6 mg/kg), 8 weeks): no dermal irritation
- Regrowth (androgenic alopecia; two volunteers, after 4 months use): evident regrowth
- % BP-766 (60/40 EtOH/H2O, 55° C., 0 hours): 100%
- % BP-766 (60/40 EtOH/H2O, 55° C., 24 hours): 98.1%
- % BP-766 (60/40 EtOH/H2O, 55° C., 48 hours): 98.2%
- % BP-766 (60/40 EtOH/H2O, RT, 0 hours): 100%
- % BP-766 (60/40 EtOH/H2O, RT, 24 hours): 99.9%
- % BP-766 (60/40 EtOH/H2O, RT, 48 hours): 99.69%
- % BP-766 (Isopropanol (3-5% water), 55° C., 0 hours): 100%
- % BP-766 (Isopropanol (3-5% water), 55° C., 6 hours): 99.6%
- % BP-766 (Isopropanol (3-5% water), 55° C., 24 hours): 99.1%
- % BP-766 (Isopropanol (3-5% water), 55° C., 144 hours): 98.7%
- % BP-766 (anhydrous isopropanol, 50° C., 0 weeks): 100%
- % BP-766 (anhydrous isopropanol, 50° C., 1 week): 99.6%
- % BP-766 (anhydrous isopropanol, 50° C., 2 weeks): 99.4%
- % BP-766 (anhydrous isopropanol, 50° C., 3 weeks): 99.3%
- % BP-766 (anhydrous isopropanol, 50° C., 4 weeks): 99.2%
- % BP-766 (anhydrous isopropanol, 50° C., 5 weeks): 98.9%
- % BP-766 (anhydrous isopropanol, 50° C., 6 weeks): 98.8%
- % BP-766 (anhydrous isopropanol, 50° C., 7 weeks): 98.3%
- % BP-766 (anhydrous isopropanol, 50° C., 8 weeks): 98.4%
- LD50, acute oral ([4]; female NMRI mice): 2232.0 mg/kg
- LD50, acute oral ([4]; male NMRI mice): 2871.7 mg/kg
- LD50, acute oral [5]: > 2500 mg/kg body weight

SMILES: O=C(O)C(F)(F)F [trifluoroacetic acid]
- Toxicity when fed to mice [6]: no toxicity

Source: patent publication US6472415B1, “Androgen receptor suppressors in the therapy and diagnosis of prostate cancer, alopecia and other hyper-androgenic syndromes” (priority 1998, dated 2002)
